Assay results taken from patent US20250214977A1, “STAT6 INHIBITORS AND USES THEREOF” (Kymera Therapeutics, Inc., priority 2024, published 2025).

Tested on: Phosphorylation of STAT6 in human A549 cells
Assay: Phosphorylated STAT6 (pSTAT6) flow cytometry assay in human A549 cells
Assay type: cell-based
Settings: read-out: STAT6 IL4 pSTAT6 assay in A549 cells: Average IC50
Description: Example 3. Phosphorylated STAT6 (pSTAT6) Flow Cytometry Assay in Human A549 Cells
Phosphorylation of STAT6 in human A549 cells was quantitatively measured using flow cytometry technology.

Structure (SMILES)	IC50
COc1c(F)cc(F)cc1-c1cc(C2=CCCN(C(=O)CCn3ccnn3)C2)c(F)c2[nH]c(C(=O)N3CCN(C4CC4)CC3)cc12 [Example I-603]	< 100 nM
CCc1cnccc1-c1cc(C(=O)N2CCN(c3ncc(F)cc3OC)CC2)cc2cc(C3=CCCN(C(=O)C(=O)O)C3)n(CC3CC3)c12 [Example I-796]	> 100000 nM
CCc1cc(C)ncc1-c1cc(C2=CCCN(C(=O)CCc3nccs3)C2)c(F)c2[nH]c(C(=O)N3CCN(c4nc(C)ccc4OC)CC3)cc12 [Example I-526]	< 100 nM
COc1ccccc1-c1cc(C2=CCCN(C(C)=O)C2)c(F)c2sc(C(=O)N(C)C)cc12 [Example I-552]	100 to 1000 nM
CC(=O)N1CCC=C(c2cc(-c3ccc4n[nH]c(C)c4c3)c3cc(C(=O)N(C)C)[nH]c3c2F)C1 [Example I-883]	100 to 1000 nM
COc1ccncc1-c1cc(C2=CCCN(C(=O)CCn3ccnn3)C2)c(F)c2[nH]c(C(=O)N3CC=C(c4ncccc4OC)CC3)cc12 [Example I-452]	> 100000 nM
COc1ccccc1-c1cc(C2=CCCN(C(=O)CCn3ccnn3)C2)c(F)c2[nH]c(C(=O)N3CCN(c4ncnc5[nH]cnc45)CC3)cc12 [Example I-946]	< 100 nM
CN(C)C(=O)c1cc2cc(C3=CCCN(C(=O)CCn4ccnn4)C3)cc(NCC3CC(F)(F)C3)c2o1 [Example I-873]	< 100 nM
CCc1ccccc1-c1cc(C2=CCCN(C(=O)CCn3cccn3)C2)c(F)c2[nH]c(C(=O)N3CCN(c4ncc(F)cc4OC)CC3)cc12 [Example I-662]	< 100 nM
COc1cnccc1-c1cc(C2=CCCN(C(=O)CCn3ccnn3)C2)c(F)c2[nH]c(C(=O)N3Cc4cnn(C)c4C3)cc12 [Example I-502]	10000 to 100000 nM
COc1ccccc1-c1cc(C2=CCCN(C(=O)[C@H]3Cc4ccccc4CN3C=O)C2)cc2cc(C(=O)N(C)C)oc12 [Example I-839]	< 100 nM
COc1cc(F)cnc1-c1cc(C2=CCCN(C(=O)CCn3ccnn3)C2)c(F)c2[nH]c(C(=O)N3CCN(c4ncc(F)cc4OC)CC3)cc12 [Example I-614]	< 100 nM
COc1cc(F)cnc1N1CCN(C(=O)c2cc3c(-c4cncc(C5CC5)c4)cc(C4=CCCN(C(=O)CCn5ccnn5)C4)c(F)c3[nH]2)CC1 [Example I-637]	< 100 nM
CN(C)C(=O)c1cc2cc(C3=CCCN(C(=O)CCn4ccnn4)C3)cc(NCc3ccccc3C3CC3)c2o1 [Example I-878]	< 100 nM
COc1cc(F)cnc1N1CCN(C(=O)c2cc3c(C4CN(C)C4)cc(C4=CCCN(C(=O)CCn5ccnn5)C4)c(F)c3[nH]2)CC1 [Example I-785]	< 100 nM
COc1ccncc1-c1cc(C2=CCCN(C(=O)CCn3ccnn3)C2)c(F)c2[nH]c(C(=O)N3CCN(c4ncncc4OC)CC3)cc12 [Example I-429]	< 100 nM
COC(=O)c1cnn(-c2cc(C3=CCCN(C(=O)CCn4ccnn4)C3)cc3cc(C(=O)N(C)C)oc23)c1 [Example I-1049]	100 to 1000 nM
CCn1ncc2c1CN(C(=O)c1cc(-c3ccccc3OC)c3c(c1)cc(C1=CCCN(C(=O)CCn4ccnn4)C1)n3CC1CC1)C2 [Example I-530]	< 100 nM
CCn1nccc1-c1cc(C(=O)N2Cc3cnn(CC)c3C2)cc2cc(C3=CCCN(C(C)=O)C3)n(CC3CC3)c12 [Example I-1045]	100 to 1000 nM
CCc1cc(C)ncc1-c1cc(C2=CCCN(C(=O)CCn3ccnn3)C2)c(F)c2[nH]c(C(=O)N3Cc4cnn(C)c4C3)cc12 [Example I-531]	< 100 nM
COc1cc(F)cnc1N1CCN(C(=O)c2cc3c(C4=CCC(C#N)CC4)cc(C4=CCCN(C(=O)CCn5ccnn5)C4)c(F)c3[nH]2)CC1 (stereo not shown) [Example I-1141]	< 100 nM
CC(=O)N1CCC=C(c2cc(-c3ccc4cncnc4c3)c3cc(C(=O)N(C)C)[nH]c3c2F)C1 [Example I-887]	100 to 1000 nM
COc1cc(F)cnc1N1CCN(C(=O)c2cc3c(-c4ccc(-c5ccccn5)cc4)cc(C4=CCCN(C(=O)CCn5ccnn5)C4)c(F)c3[nH]2)CC1 [Example I-1120]	< 100 nM
COc1ccccc1-c1cc(C2=CCCN(C(=O)CCn3ccnn3)C2)c(F)c2[nH]c(C(=O)N3CCN(CCCF)CC3)cc12 [Example I-843]	< 100 nM
CN(C)C(=O)c1cc2cc(C3=CCCN(C(=O)CCn4ccnn4)C3)cc(NCc3ccc(C#N)cc3)c2o1 [Example I-895]	< 100 nM
CC(C(=O)N1CCC=C(c2ccc3cc(C(=O)N(C)C)[nH]c3c2)C1)n1ccccc1=O (stereo not shown) [Example I-825]	100 to 1000 nM
COc1cc(F)ccc1-c1cc(C2=CCCN(C(=O)CCn3ccnn3)C2)cc2[nH]c(C(=O)N(C)C)cc12 [Example I-1055]	< 100 nM
CCC1=C(c2cc(C3=CCCN(C(=O)CCn4ccnn4)C3)c(F)c3[nH]c(C(=O)N4CCN(c5ncc(F)cc5OC)CC4)cc23)CNCC1 [Example I-743]	< 100 nM
CN(C)C(=O)c1cc2cc(C3=CCCN(C(=O)CCn4ccnn4)C3)cc(C3CCNCC3)c2o1 [Example I-1048]	< 100 nM

Results, then the compound that gave them:

IC50	Structure (SMILES)
< 100 nM	COc1cc(F)ccc1-c1cc(C2=CCCN(C(=O)CCn3ccnn3)C2)c(F)c2[nH]c(C(=O)N3CCN(c4ncc(Cl)cc4OC)CC3)cc12 [Example I-459]
< 100 nM	COc1ccccc1-c1cc(C2=CCCN(C(=O)CCn3ccnn3)C2)c(F)c2[nH]c(C(=O)N3CCN(c4ncnc5cccc(F)c45)CC3)cc12 [Example I-929]
< 100 nM	COc1ccccc1-c1cc(C2=CCCN(C(=O)CCn3ccnn3)C2)c(F)c2[nH]c(C(=O)N3CCN(c4nccc5cnccc45)CC3)cc12 [Example I-362]
< 100 nM	COc1ccccc1-c1cc(C2=CCCN(C(=O)CCn3ccnn3)C2)c(F)c2[nH]c(C(=O)N3CCN(c4nccc5ccncc45)CC3)cc12 [Example I-355]
< 100 nM	COc1cc(N(C)C)ccc1-c1cc(C2=CCCN(C(=O)CCn3ccnn3)C2)c(F)c2[nH]c(C(=O)N3CCN(c4ncccc4OC4CC4)CC3)cc12 [Example I-609]
< 100 nM	COc1ccccc1-c1cc(C2=CCCN(C(=O)CCn3ccnn3)C2)c(F)c2[nH]c(C(=O)N3CCN(c4ncc(C#N)cc4OC)CC3)cc12 [Example I-940]
< 100 nM	COc1cccc(N2CCN(C(=O)c3cc4c(-c5ccc(N(C)C)cc5OC)cc(C5=CCCN(C(=O)CCn6ccnn6)C5)c(F)c4[nH]3)CC2)n1 [Example I-1109]
< 100 nM	COc1ccncc1-c1cc(C2=CCCN(C(=O)CCn3ccnn3)C2)c(F)c2[nH]c(C(=O)N3CCN(c4ccc(C#N)cc4OC)CC3)cc12 [Example I-474]
< 100 nM	COc1ccccc1-c1cc(C2=CCCN(C(=O)CCn3ccnn3)C2)c(F)c2[nH]c(C(=O)N3CCN(C(=O)N(C)C)CC3)cc12 [Example I-866]
100 to 1000 nM	COc1cc(F)ccc1-c1cc(C2=CCCN(C(=O)CCn3ccnn3)C2)c(F)c2[nH]c(C(=O)N3CCN(c4ccc(F)c(OC)n4)CC3)cc12 [Example I-1107]
< 100 nM	COc1ccccc1-c1cc(C2=CCCN(C(=O)CCn3ccnn3)C2)c(F)c2[nH]c(C(=O)N3CCN(c4ncc(N(C)C)cc4OC)CC3)cc12 [Example I-416]
< 100 nM	COc1cc(C#N)ccc1-c1cc(C2=CCCN(C(=O)CCn3ccnn3)C2)c(F)c2[nH]c(C(=O)N3CCN(c4ncccc4OC)CC3)cc12 [Example I-576]
< 100 nM	CCc1ccccc1-c1cc(C2=CCCN(C(=O)CCn3ccnn3)C2)c(F)c2[nH]c(C(=O)N3CCN(c4ncc(F)cc4OC)CC3)cc12 [Example I-665]
< 100 nM	COc1ccccc1-c1cc(C2=CCCN(C(=O)CCn3ccnn3)C2)c(F)c2[nH]c(C(=O)N3CCN(c4cccc(OC(F)F)c4)CC3)cc12 [Example I-427]
